Measured values taken from patent US20110028345A1, “METHODS TO CHARACTERIZE CELL REPROGRAMMING AND USES THEREOF” (CORNING INCORPORATED, priority 2009, published 2011).
Ends that are not written are not given here.

Experiments:
[1] = system: undifferentiated and differentiated ReN cells; assay: DMR marker panel profiling, differentiated versus undifferentiated ReN cells; assay type: cell-based, human; details: markers at 10 μM (dopamine and glucagons like peptide 128 μM); FIG. 9-11
Protocol: The confluency for all cells at the time of assays was ˜95% to 100%.
(§1) For biosensor cellular assays, compound solutions were made by diluting the stored concentrated solutions with the HBSS (1× Hanks balanced salt solution, plus 20 mM Hepes, pH 7.1), and transferred into a 384 well polypropylene compound storage plate to prepare a compound source plate. […] Afterwards, a 2 to 10 min continuous recording was carried out to establish a baseline, and to ensure that the cells reached a steady state.

[2] = system: differentiated ReNcell cells (endogenous dopamine receptors); assay: Epic RWG biosensor DMR assay on the neuronal cell system differentiated from ReNcell VM; assay type: cell-based, human; details: for DMR signal upon stimulation: differentiated ReNcell cells, PD128907 and A68930 16 micromolar, dopamine 128 micromolar (FIG. 7A-C); for receptor to which the DMR signal is attributed: same doses as FIG. 7A-C
Protocol: For cell assay on Epic, undifferentiated cells were typically seeded using ˜3×10^3 cells per well in 50 μl of the corresponding culture medium in the biosensor microplate freshly coated with laminin, and were cultured at 37° C. under air/5% CO2. […] The medium was replaced with fresh ReNcell NSC Maintenance Medium every 2-3 days for 10 days. The confluency for all cells at the time of assays was ˜95% to 100%.
as §1

ReNcell progenitor cells = details: 128 micromolar
Protocol: Afterwards, a 2 to 10 min continuous recording was carried out to establish a baseline, and to ensure that the cells reached a steady state. Cellular responses were then triggered by transferring 10 μl of the compound solutions into the cell assay plate using the on-board liquid handler.
Epic® wavelength interrogation system (Corning Inc., Corning, N.Y.) was used for whole cell sensing. This system consists of a temperature-control unit, an optical detection unit, and an on-board liquid handling unit with robotics. The detection unit is centered on integrated fiber optics, and enables kinetic measures of cellular responses with a time interval of ˜15 sec. The compound solutions were introduced by using the on-board liquid handling unit (i.e., pippetting).
For biosensor cellular assays, compound solutions were made by diluting the stored concentrated solutions with the HBSS (1× Hanks balanced salt solution, plus 20 mM Hepes, pH 7.1), and transferred into a 384 well polypropylene compound storage plate to prepare a compound source plate. Two compound source plates were made separately when a two-step assay was performed. […] Both the cell assay plate and the compound source plate(s) were then incubated in the hotel of the reader system. After incubation the baseline wavelengths of all biosensors in the cell assay microplate were recorded and normalized to zero. […]

A549 cell = assay: Modulation of marker-induced biosensor (DMR) responses in A549 cell; assay type: cell-based
Text: (§2) A “modulation profile” or like terms is the comparison between a secondary profile of the marker in the presence of a molecule and the primary profile of the marker in the absence of any molecule. The comparison can be by, for example, subtracting the primary profile from secondary profile or subtracting the secondary profile from the primary profile or normalizing the secondary profile against the primary profile.
(§3) A “molecule modulation index” or like terms is an index to display the ability of the molecule to modulate the biosensor output signals of the panels of markers acting on the panel of cells. The modulation index is generated by normalizing a specific biosensor output signal parameter of a response of a cell upon stimulation with a marker in the presence of a molecule against that in the absence of any molecule.
(§4) Alternatively, different scores can be given for a type of modulation but with different scales. For example, a positive modulation of 10%, 20%, 30%, 40%, 50%, 60%, 100%, 200%, etc, can be given a score of +1, +2, +3, +4, +5, +6, +10, +20, correspondingly. Conversely, for negative modulation, similar but in opposite score can be given. […] Thus, the score of HA1077 modulation index in coordination can be assigned as (0, 0.5, −0.6, 0, −2.3, 0.6, 0, −6.8, 0.4, −3.6, −0.5, −1.6). Once a molecular index is generated, the molecular index can be compared with a library of known modulators to determine the mode(s) of action of the molecule of interest. […] Beside its indicative power of a DMR index for pharmacology of a molecule, a molecule DMR index can also be used to distinguish the cellular background of different types of cells.

quiescent A431 cells = assay: Modulation of marker-induced biosensor (DMR) responses in quiescent A431 cells; assay type: cell-based
Text: as §2, §3, §4

Compound: Nc1ncnc2c1ncn2[C@@H]1O[C@H](COP(=O)(O)OP(=O)(O)OP(=O)(O)O)[C@@H](O)[C@H]1O [ATP]
- specificity of the marker DMR signal for the differentiation state [1]: specific to the differentiated ReN cells

Compound: orexin A (QPLPDCCRQKTCSCRLYELLHGAGNHAAGILTL; ends and bridges not checked; cysteine pairing not given here; UniProt O43612 34-66, looked up) [orexin receptor agonist]
- specificity of the marker DMR signal for the differentiation state [1]: specific to the differentiated ReN cells

Compound: NC[C@@H]1O[C@H](c2ccccc2)Cc2c1ccc(O)c2O [A68930]
- DMR signal upon stimulation [2]: small but reproducible DMR signal
- receptor to which the DMR signal is attributed ([2]; differentiated cells): triggered a DMR signal specifically to the endogenous D1 receptor

Compound: O=c1ccn([C@@H]2O[C@H](COP(=O)(O)OP(=O)(O)O)[C@@H](O)[C@H]2O)c(=O)[nH]1 [UDP]
- specificity of the marker DMR signal for the differentiation state [1]: specific to the differentiated ReN cells

Compound: substance P (RPKPQQFFGLM; ends and bridges not checked; UniProt P20366 58-68, looked up) [NKA receptor agonist]
- specificity of the marker DMR signal for the differentiation state [1]: specific to the undifferentiated cells

Compound: dynorphin A (YGGFLRRIRPKLKWDNQ; Dynorphin A(1-17); UniProt P01213 207-223, looked up) [opioid receptor agonist]
- specificity of the marker DMR signal for the differentiation state [1]: specific to the differentiated ReN cells

Compound: Nc1ncnc2c1ncn2[C@@H]1O[C@H](CO)[C@@H](O)[C@H]1O [adenosine]
- specificity of the marker DMR signal for the differentiation state [1]: specific to the differentiated ReN cells

Compound: alpha-melanocyte-stimulating hormone (SYSMEHFRWGKPV; ends and bridges not checked; UniProt P01189 138-150, looked up) [MCH receptor agonist]
- specificity of the marker DMR signal for the differentiation state [1]: non-specific to both the undifferentiated and differentiated ReN cells

Compound: NCCc1ccc(O)cc1 [tyramine]
- specificity of the marker DMR signal for the differentiation state [1]: specific to the undifferentiated cells

Compound: NCCc1ccc(O)c(O)c1 [dopamine]
- DMR signal 10 days after differentiation and maturation ([2]; 128 micromolar, 10 days after differentiation (FIG. 8D)): distinct DMR signal which contains additional contributions from endogenous D1 receptors
- dose dependence of the DMR signal ([2]; amplitudes 50 min after stimulation as a function of concentration (FIG. 7D)): biphasic dose-dependent DMR signal
- DMR signal upon stimulation [2]: small but reproducible DMR signal
- DMR signal at high doses ([2]; differentiated cells, high doses): close to the simple sum of both A68390 and PD129807 DMR signals
- DMR signal at low doses ([2]; differentiated cells, low doses (<4000 nM)): DMR signal similar to that induced by A68390
- receptor to which the DMR signal is attributed ([2]; differentiated cells): can activate both D1 and D2 receptors
- DMR signal 3 hr after attachment (ReNcell progenitor cells; 3 hr after attachment on laminin coated biosensor surface (FIG. 8B)): small but reproduced DMR signal
- DMR signal after 4 days undifferentiated culture (ReNcell progenitor cells; 4 days in growth factor rich medium (FIG. 8C)): distinct DMR signal (FIG. 8C), which was confirmed to be due to the activation of the endogenous D2 receptor
- specificity of the marker DMR signal for the differentiation state [1]: non-specific to both the undifferentiated and differentiated ReN cells

Compound: Nc1ncnc2c1ncn2[C@@H]1O[C@H](COP(=O)(O)OP(=O)(O)O)[C@@H](O)[C@H]1O [ADP]
- specificity of the marker DMR signal for the differentiation state [1]: non-specific to both the undifferentiated and differentiated ReN cells

Compound: Neuropeptide Y
- specificity of the marker DMR signal for the differentiation state [1]: specific to the differentiated ReN cells

Compound: N#CC(C#N)=C(N)/C(C#N)=C/c1cc(O)c(O)c(O)c1 [tyrphostin 51]
- modulation of the biosensor response induced by PMA (A549 cell; marker PMA): −6%
- modulation of the biosensor response induced by SLIGKV-amide (A549 cell; marker SLIGKV-amide): 0%
- modulation of the biosensor response induced by forskolin (A549 cell; marker forskolin): −23%
- modulation of the histamine early response (A549 cell; marker histamine, early response): +6%
- modulation of the histamine late response (A549 cell; marker histamine, late response): 0%
- modulation of the biosensor response induced by pinacidil (A549 cell; marker pinacidil): 0%
- modulation of the biosensor response induced by poly (I:C) (A549 cell; marker poly (I:C)): +5%
- mode of action concluded from the biosensor index (quiescent A431 cells; EGFR inhibitor (EGF DMR in A431) and PDE4 inhibitor (epinephrine, histamine in A431; forskolin in A549)): displays polypharmacology
- modulation of the EGF N-DMR (quiescent A431 cells; quiescent A431 cells, marker EGF, N-DMR): −5%
- modulation of the EGF P-DMR (quiescent A431 cells; quiescent A431 cells, marker EGF, P-DMR): −36%
- modulation of the biosensor response induced by epinephrine (quiescent A431 cells; quiescent A431 cells, marker epinephrine): −68%
- modulation of the biosensor response induced by histamine (quiescent A431 cells; quiescent A431 cells, marker histamine): −16%
- modulation of the biosensor response induced by nicotinic acid (quiescent A431 cells; quiescent A431 cells, marker nicotinic acid): +4%

Compound: NCCCC(=O)O [GABA]
- specificity of the marker DMR signal for the differentiation state [1]: non-specific to both the undifferentiated and differentiated ReN cells

Compound: apelin
- specificity of the marker DMR signal for the differentiation state [1]: non-specific to both the undifferentiated and differentiated ReN cells

Compound: O=c1ccn([C@@H]2O[C@H](COP(=O)(O)OP(=O)(O)OP(=O)(O)O)[C@@H](O)[C@H]2O)c(=O)[nH]1 [UTP]
- specificity of the marker DMR signal for the differentiation state [1]: specific to the undifferentiated cells

Compound: angiotensin II (DRVYIHPF; Angiotensin-2; UniProt P01019 25-32, looked up) [ATII receptor angiotensin II]
- specificity of the marker DMR signal for the differentiation state [1]: specific to the undifferentiated cells

Compound: CCCN1CCO[C@@H]2c3cc(O)ccc3OC[C@H]21 [PD128907]
- DMR signal upon stimulation [2]: small but reproducible DMR signal
- receptor to which the DMR signal is attributed ([2]; differentiated cells): activated another endogenous dopamine receptor (possibly D2 receptor)

Compound: glucagons like peptide
- specificity of the marker DMR signal for the differentiation state [1]: specific to the undifferentiated cells

Compound: SFLLR-amide
- specificity of the marker DMR signal for the differentiation state [1]: specific to the differentiated ReN cells

Compound: endothelin 1 (CSCSSLMDKECVYFCHLDIIW; ends and bridges not checked; cysteine pairing not given here; UniProt P05305 53-73, looked up) [endothelin receptor agonist]
- specificity of the marker DMR signal for the differentiation state [1]: specific to the differentiated ReN cells

Compound: NCCCNCCCCNCCCN [spermine]
- specificity of the marker DMR signal for the differentiation state [1]: specific to the differentiated ReN cells

Compound: platelet growth factor
- specificity of the marker DMR signal for the differentiation state [1]: non-specific to both the undifferentiated and differentiated ReN cells

Compound: neuropeptide B-23 (WYKPAAGHSSYSVGRAAGLLSGLR; ends and bridges not checked; UniProt Q8NG41 25-48, looked up) [GPR7 and 8 agonist]
- specificity of the marker DMR signal for the differentiation state [1]: specific to the differentiated ReN cells

Compound: lysophosphatidic acid
- specificity of the marker DMR signal for the differentiation state [1]: specific to the undifferentiated cells

Compound: vasoactive intestinal peptide (HSDAVFTDNYTRLRKQMAVKKYLNSILN; ends and bridges not checked; UniProt P01282 125-152, looked up) [VIP receptor agonist]
- specificity of the marker DMR signal for the differentiation state [1]: specific to the differentiated ReN cells
